Where a name gives a salt, the structure may show the parent alone.

Assay [1] in a line: Affinity at sigma-1 site by inhibition of [3H](+)-pentazocine (PENT) binding in guinea pig brain.
Assay [2] is described as follows: Binding affinity was measured as selectivity for sigma-1 site over muscarinic (M1) receptor in rat.

One may read the Ki as a measure of affinity in units of concentration, obtained from inhibition or displacement. For the compound `O=C(OCCN1CCN(c2ccccc2)CC1)C1(c2ccc(Cl)cc2)CCCC1` [1-(4-Chloro-phenyl)-cyclopentanecarboxylic acid 2-(4-phenyl-piperazin-1-yl)-ethyl ester; hydrochloride], in assay [1], affinity was put at a Ki of 77 nM.

In assay [1], `COc1ccc(C2(C(=O)OCCCN3CCC(c4ccccc4)CC3)CCCC2)cc1` [1-(4-Methoxy-phenyl)-cyclopentanecarboxylic acid 3-(4-phenyl-piperidin-1-yl)-propyl ester; hydrochloride] showed a Ki of 0.65 nM.

On to `O=C(OCCCN1CCC(c2ccccc2)CC1)C1(c2ccc(Cl)cc2)CCCC1` [1-(4-Chloro-phenyl)-cyclopentanecarboxylic acid 3-(4-phenyl-piperidin-1-yl)-propyl ester; hydrochloride], for which affinity in assay [1] was put at a Ki of 1.5 nM. In turn, `COc1ccc(C2(C(=O)OCCN3CCC(c4ccccc4)CC3)CCCC2)cc1` [1-(4-Methoxy-phenyl)-cyclopentanecarboxylic acid 2-(4-phenyl-piperidin-1-yl)-ethyl ester; hydrochloride] displayed a Ki in assay [1] of 1 nM. Compound `O=C(OCCN1CCC(c2ccccc2)CC1)C1(c2ccc(I)cc2)CCCC1` [1-(4-Iodo-phenyl)-cyclopentanecarboxylic acid 2-(4-phenyl-piperidin-1-yl)-ethyl ester; hydrochloride] gave a Ki in assay [1] of 1.4 nM. `O=C(OCCCCCCN1CCC(c2ccccc2)CC1)C1(c2ccccc2)CCCC1` [1-Phenyl-cyclopentanecarboxylic acid 6-(4-phenyl-piperidin-1-yl)-hexyl ester; hydrochloride] had a Ki in assay [1] of 1.2 nM.

Turning to `O=C(OCCN1CCN(c2ccccc2)CC1)C1(c2ccccc2)CCCC1` [1-Phenyl-cyclopentanecarboxylic acid 2-(4-phenyl-piperazin-1-yl)-ethyl ester; hydrochloride], the Ki in assay [1] was 63 nM. `O=C(OCCN1CCN(c2ccccc2)CC1)C1(c2ccc(I)cc2)CCCC1` [1-(4-Iodo-phenyl)-cyclopentanecarboxylic acid 2-(4-phenyl-piperazin-1-yl)-ethyl ester; hydrochloride] displayed a Ki in assay [1] of 23 nM. As to `O=C(OCCCCN1CCC(c2ccccc2)CC1)C1(c2ccccc2)CCCC1` [1-Phenyl-cyclopentanecarboxylic acid 4-(4-phenyl-piperidin-1-yl)-butyl ester; hydrochloride], in assay [1], the affinity corresponds to a Ki of 0.51 nM.

For `O=C(OCCN1CCN(c2ccccc2)CC1)C1(c2ccc([N+](=O)[O-])cc2)CCCC1` [1-(4-Nitro-phenyl)-cyclopentanecarboxylic acid 2-(4-phenyl-piperazin-1-yl)-ethyl ester; hydrochloride], the Ki in assay [1] is 2.8 nM. Compound `O=C(OCCN1CCC(c2ccccc2)CC1)C1(c2ccccc2)CCCC1` [1-Phenyl-cyclopentanecarboxylic acid 2-(4-phenyl-piperidin-1-yl)-ethyl ester; hydrochloride] returned a Ki in assay [1] of 4 nM.

In turn, `N#Cc1ccc(C2(C(=O)OCCN3CCC(c4ccccc4)CC3)CCCC2)cc1` [1-(4-Cyano-phenyl)-cyclopentanecarboxylic acid 2-(4-phenyl-piperidin-1-yl)-ethyl ester; hydrochloride] came in with a Ki in assay [1] of 1.3 nM. Regarding `O=C(OCCN1CCC(c2ccccc2)CC1)C1(c2ccc(Cl)cc2)CCCC1` [1-(4-Chloro-phenyl)-cyclopentanecarboxylic acid 2-(4-phenyl-piperidin-1-yl)-ethyl ester; hydrochloride], in assay [1], the Ki was 1.3 nM.

Take `O=C(OCCCN1CCC(c2ccccc2)CC1)C1(c2ccc(I)cc2)CCCC1` [1-(4-Iodo-phenyl)-cyclopentanecarboxylic acid 3-(4-phenyl-piperidin-1-yl)-propyl ester; hydrochloride]: the Ki in assay [1] worked out at 0.88 nM. In assay [2], `COc1ccc2c(c1)[C@]13CCCC[C@@H]1[C@H](C2)N(C)CC3` [DEXTROMETHORPHAN] showed a Ki of 5070 nM. In assay [1], `O=C(OCCCN1CCC(c2ccccc2)CC1)C1(c2ccc([N+](=O)[O-])cc2)CCCC1` [1-(4-Nitro-phenyl)-cyclopentanecarboxylic acid 3-(4-phenyl-piperidin-1-yl)-propyl ester; hydrochloride] came in with a Ki of 0.27 nM.

(Values after BindingDB's records for doi:10.1021/jm00039a008 (Albany Molecular Research, 1994).)
